Laboratory results as given in PubChem BioAssay (NCI).
Where “and” joins values, the source holds several entries; their conditions need not be identical. Equal entries are not always repeated.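 The compound was tested at five concentrations on cells cultured in 96-well plates, with a 48-hour exposure period. Here, GI50 denotes the concentration required for 50% inhibition of growth. TGI marks complete inhibition of growth.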

How the values were obtained:
Test in all cases: NCI-60 cell line screen, 48 h
HS 578T breast = tested on: HS 578T breast
MALME-3M melanoma = tested on: MALME-3M melanoma
OVCAR-5 ovarian = tested on: OVCAR-5 ovarian
RPMI-8226 leukemia = tested on: RPMI-8226 leukemia
SK-MEL-2 melanoma = tested on: SK-MEL-2 melanoma
SN12C renal = tested on: SN12C renal
TK-10 renal = tested on: TK-10 renal
U251 CNS = tested on: U251 CNS

SMILES | GI50 (HS 578T breast) [µM] | TGI (HS 578T breast) | GI50 (MALME-3M melanoma) [µM] | TGI (MALME-3M melanoma) [µM] | GI50 (OVCAR-5 ovarian) [µM] | TGI (OVCAR-5 ovarian) | GI50 (RPMI-8226 leukemia) [µM] | TGI (RPMI-8226 leukemia) [µM] | GI50 (SK-MEL-2 melanoma) [µM] | TGI (SK-MEL-2 melanoma) [µM] | GI50 (SN12C renal) [µM] | TGI (SN12C renal) | GI50 (TK-10 renal) | TGI (TK-10 renal) | GI50 (U251 CNS) [µM] | TGI (U251 CNS)
CN(C)C(=O)c1cc2cnc(Nc3ccc(-c4csc5c(=S)cc(N6CCOCC6)oc45)cc3)nc2n1C1CCCC1 | 0.469 | 3.98 µM | 0.778 | 31.1 | 0.485 | > 50 µM | 0.252 | 1.45 | 0.971 | 2.84 | 0.33 | > 50 µM | 0.987 µM | > 50 µM | 0.481 | > 50 µM
NCC1Nc2ccccc2[C@@H](O)C1O (stereo not given in full) | – | > 100 µM | – | > 100 | – | > 100 µM | – | > 100 | – | > 100 | – | > 100 µM | – | > 100 µM | – | > 100 µM
CCCCCCCC/C=C/CCCCCCCC(=O)OC[C@H]1O[C@@H](n2ccc(N)nc2=O)C(F)(F)[C@@H]1O | > 59.9 | > 100 µM | 0.0463 | > 100 | 0.724 | > 100 µM | 0.128 | > 100 | 14.2 | > 100 | 0.0388 | > 47.2 µM | 2.38 µM | > 100 µM | < 0.016 | 25.3 µM
NP(=O)(Oc1c2occc2cc2ccc(=O)oc12)N(CCCl)CCCl (stereo not given) | – | > 100 µM | – | > 100 | – | > 100 µM | – | > 100 | – | > 100 | – | > 100 µM | – | > 100 µM | – | > 100 µM
Oc1ccccc1C(Sc1nc2ccccc2s1)Sc1nc2ccccc2s1 | – | > 100 µM | – | > 100 | – | > 100 µM | – | > 100 | – | > 100 | – | > 100 µM | – | > 100 µM | – | > 100 µM
COc1ccc(Cn2cc3c(c2-c2ccccc2)CC(C)(C)c2cnoc2-3)cc1 | 1.45 | 7.91 µM | 1.63 | > 100 | 4.39 | > 100 µM | 3.09 | > 100 | 2.9 | 53.6 | 4.46 | > 100 µM | 2.91 µM | > 100 µM | 2.99 | > 100 µM
COc1nc2ccccc2cc1-c1nc2c(cnn2-c2ccc(Br)cc2)c(=O)[nH]1 | 0.0282 | 4.71 µM | 0.519 | > 50 | 0.798 | > 50 µM | 0.0402 | 6.79 | 0.0946 | 9.22 | 0.0739 | > 50 µM | 0.21 µM | 8.8 µM | 0.0241 | 7.42 µM
CN1C/C=C\CCOc2cccc(c2)-c2ccnc(n2)Nc2cccc(c2)C1 | 0.0641 | 0.82 µM | 0.107 | 0.454 | 0.0369 | – | 0.0804 | 0.318 | 0.0397 | 0.132 | 0.0556 | 1.45 µM | 0.0762 µM | 0.88 µM | 0.0374 | 0.678 µM
O=C1OC(C(O)CO)C(=O)C1=O (stereo not given) | 3250 | 9940 µM | 2070 | 4870 | 2050 | 4330 µM | 2460 | 8420 | > 10000 | > 10000 | 2530 | 7090 µM | 2080 µM | 3570 µM | 5090 | > 10000 µM
NS(=O)(=O)c1ccc(NC2(C(=O)O)CCCC2)cc1 | – | > 100 µM | – | > 100 | – | > 100 µM | – | > 100 | – | > 100 | – | > 100 µM | – | > 100 µM | – | > 100 µM
COc1cc2ncnc(Nc3ccc(C)c(O)c3)c2cc1OC | 5.36 | 18.8 µM | > 25 | > 25 | 16.2 | > 25 µM | > 25 | > 25 | > 13.4 | > 20 | 6.46 | > 25 µM | 3.62 µM | 12 µM | 15.8 | > 25 µM
CN1CCN(CCCOc2ccc3nc(Nc4ccc(Cl)c(C(F)(F)F)c4)ccc3c2)CC1 | 12.5 | 32.1 µM | 11.3 | 28.4 | 17 | 35.4 µM | 14.3 | 34.2 | 16.5 | 31.6 | 13.8 | 30.2 µM | 18.3 µM | 32.8 µM | 12.5 | 26.2 µM
COC1=C(C)C(=O)c2c(c(COC(N)=O)c3n2CC2C3N2C)C1=O (stereo not given) | – | 0.986 µM | – | 0.164 | – | 0.324 µM | – | 0.117 | – | 0.109 | – | 0.221 µM | – | 0.0542 µM | – | 0.0231 µM
CC(C)(C)c1cc(Br)c(O)c(CN(Cc2cc(C(C)(C)C)cc(Br)c2O)C2CCCCC2)c1 | – | 28.4 µM | – | 24.1 | – | 29.1 µM | – | 27.9 | – | 25.8 | – | 28 µM | – | 29.2 µM | – | 26.8 µM
COc1ccc(/C=C/c2ccnc3ccccc23)c(OC)c1 | – | > 10 µM | – | > 10 | – | > 10 µM | – | > 10 | – | > 10 | – | > 10 µM | – | > 10 µM | – | > 10 µM
CC(C)n1nc(-c2cc3cc(O)ccc3[nH]2)c2c(N)ncnc21 | 0.109 | 0.503 µM | 0.0269 | 0.265 | 0.244 | 8.98 µM | 0.0705 | 1.25 | 0.229 | 1.95 | 0.175 | 6.43 µM | 0.178 µM | 2.31 µM | 0.565 | 10.9 µM
c1cc(CNC23CC4CC(CC(C4)C2)C3)cc(C[N+](Cc2cccc(CNC34CC5CC(CC(C5)C3)C4)c2)(Cc2cccc(CNC34CC5CC(CC(C5)C3)C4)c2)Cc2cccc(CNC34CC5CC(CC(C5)C3)C4)c2)c1 (stereo not given) | 8.01 | 49.4 µM | 3.51 | 7.77 | 4.09 | 11.5 µM | 5.51 | 16.7 | 4.44 | 13.4 | 5.9 | 18.5 µM | 7.75 µM | 30 µM | 4.68 | 11.3 µM
C=C1C(=O)O[C@H]2[C@H]1CC/C(COC(=O)C(=O)c1cn(Cc3ccccc3)c3ccccc13)=C\CC[C@@]1(C)O[C@@H]21 | 3.35 | 29.9 µM | 2.08 | 4.39 | 2.56 | 6.82 µM | 2.09 | 8.04 | 2.09 | 4.71 | 2.3 | 6.03 µM | 2.33 µM | 5.47 µM | 4.01 | 14.7 µM
Cc1cn(C2CC(N(O)Cc3ccccc3)C(CO[Si](C)(C)C(C)(C)C)O2)c(=O)[nH]c1=O (stereo not given) | – | 41.6 µM and 34.5 µM | – | 31.8 | – | 42.8 µM and 32.7 µM | – | > 100 | – | 38.3 | – | 30.6 µM and 29.7 µM | 37.8 µM and 18 µM | > 100 µM and 31.8 µM | – | 38.6 µM and 28.4 µM
Cc1ccc(C(=O)CN(/C=C/C(=O)C(F)(F)F)c2ccc(S(N)(=O)=O)cc2)cc1 | 55.3 | > 100 µM | > 100 | > 100 | > 100 | > 100 µM | 29.7 | > 100 | > 100 | > 100 | > 100 | > 100 µM | 44.5 µM | > 100 µM | 48.4 | > 100 µM
COc1cc2c3c(n(CCCNC(=O)OCC4c5ccccc5-c5ccccc54)c(=O)c2cc1OC)-c1cc2c(cc1/C3=C\CCNC(=O)OCC1c3ccccc3-c3ccccc31)OCO2 | 1.29 | 10.2 µM | 45.5 | > 50 | > 19.6 | > 45 µM | > 26.3 | 48.9 | > 10.2 | > 21.6 | > 50 | > 50 µM | > 31.7 µM | > 50 µM | > 17.8 | > 36.7 µM
Clc1nc(Cl)c(Cl)c(-c2ccccc2)n1 | – | > 100 µM | – | 53.7 | – | 42.1 µM | – | > 100 | – | 51.7 | – | 53.9 µM | – | 32.9 µM | – | 30.3 µM
C=C1C(=O)O[C@@H]2/C=C(\C)CC/C=C(/COC(C)=O)C[C@@H](OC(C)=O)[C@@H]12 | – | > 70.2 µM | – | 8.85 | – | 34.6 µM | – | > 41.7 | – | 31.8 | – | 24.9 µM | – | 23.2 µM | – | 36.7 µM
COC(=O)C1=CNC=C(C(=O)OC)C1C1=CC(=O)C(C)=CC1=O | 25 | 66.5 µM | 14.1 | 27.5 | 17.7 | 31.7 µM | 2.9 | 7.5 | 16.6 | 30.9 | 13 | 25.8 µM | 6.2 µM | 15.5 µM | 16.5 | 32.1 µM
COC1=CC(=O)c2nc(-c3cccc(C)n3)[nH]c2C1=O | 25.3 | 76.7 µM | 20.8 | 64.3 | 30.9 | > 100 µM | 27 | > 100 | 52.4 | > 100 | 32.9 | > 100 µM | 19.4 µM | 40.2 µM | 20.4 | 41.7 µM
